Legend:
ORF2p core [1] = target: T1, ORF2p core (Homo sapiens, UniProt O00370); assay: Homogeneous time-resolved fluorescence (HTRF) ORF2p RT assay; assay type: biochemical; details: HTRF; NRTI NTPs
T1 construct: His6-MBP-3C-ORF2p (238-1061, ORFeus-Hs) in pET41; His6-MBP (3C protease site) (N, cleaved yes); made in house; host or cells: E. coli
Method: (§1) ORF2p core was preincubated with a template:primer containing a single site for the incorporation of a given nucleotide analogue. The primer/template sequence shown in the panel a illustrates the case of single incorporation of 3TC, with a single G for incorporation; the incoming template sequence for entecavir and carbovir has a single C, and for d4T a single A, each at position labeled “N”. Reactions were incubated for one minute at 37 °C with a 100 nM dNTP mixture and increasing concentrations of listed inhibitors. IC50 index, fold = IC50 (drug, µM) ÷ [dNTP] […] Fluorescein-labeled dNTPs (here, uracil-TP) are incorporated by ORF2p into a biotinylated primer, here shown against a poly(A) template. Detection is then achieved using FRET with a terbium cryptate labeled streptavidin, and the time-resolved technique and time-delayed emission from terbium cryptate reduces background from other fluorescent chemicals in the mix. In the presence of ORF2p RT inhibitors (RTIs), base incorporation is stopped and FRET signal is lost. […]
(§2) ORF2p reverse transcriptase activity assays […]
For HTRF RT assays157, 25 nM ORF2p core and 12. 5 nM t em plat e: primer was incubated at 25°C for 60 minutes
with 10 nM of fluorescein- 12- dUTP (Thermo), 1 µM each (dATP,dCTP,dGTP), and test compound in a 15 µL
reaction with buffer containing 50 mM Tris-HCl, 50 mM KCl, 10 mM MgCl2, 10 mM DTT, pH 8.1, and 1% final

[2] = system: interferon production in THP1 cells; assay: Interferon reporter assay in THP1 cells (secreted luciferase); assay type: cell-based, human; details: 50 µM; THP1 cells, 1 µM decitabine
Method: Culture Collection ( AT CC); THP1-Dual and THP1- Dual KO-TREX1 cells were from InvivoGen. All cell lines were maintained at 37 °C and 5% CO2 and validated and tested for mycoplasma. All plasmids and affinity reagents are described in Supplementary Tables 4-5 , respectively and available from Addgene at https://www.addgene.org/browse/article/28243724/. […]
Interferon reporter assay in THP1 cells
The type I interferon response was evaluated using THP1 -Dual and THP1-Dual KO-TREX1 cells (InvivoGen), which secrete a Lucia luciferase reporter gene under control of an interferon- responsive promoter. THP1-Dual KO-TREX1 cell were generated by stable biallelic knock-out of the TREX1 gene. Cell were treated with a dose titration of test compound in the presence of 1 µM 5- aza-2ʹ-deoxycytidine (decitabine, Sigma, #189825), which de- represses LINE-1121. Type 1 Interferon and cell viability were assessed after five days of treatment. QUANTI-LUC solution containing stabilizer was added to the cell supernatant and luminescence was measured on a p la t e reader, and cells were assessed for cell viability using CellTiter-Glo (Promega, #G9683) according to the manufacturer’s instructions.
LINE-1 dual luciferase retrotransposition assay
To assess the potency of inhibiting LINE-1 retrotransposon, a stable clonal dual luciferase L1 reporter cell line was generated and reported as described130,133 in the HeLa Tet-On 3G cell line (Takara, ). SB100x161 was used to integrate pRT006.2, a vector similar to pYX056 130 , which contains a bi-directional Tet-On promoter expressing both control Renilla luciferase and LINE-1 ORFeus-Hs Firefly luciferase antisense intron (AI) r epor t er 79,162. A single cell clone was selected with the highest doxycycline-induced luciferase signal vs baseline. Cells were mixed with compounds and induced for reporter expression with 500 ng/mL doxycycline (Sigma, #D9891) for 72 hours. Luminescence was measured using the Dual-Glo Luciferase Assay System (Promega, #E2940) following the manufacturer’s instructions, and the ratio of Firefly to Renilla Luciferase activity was used to measure […]
Telomerase activity assay
The human telomerase assay was performed with telomerase in MCF- 7 cell lysates using the Telo TAGGG Telomerase PCR ELISAplus kit (Roche). Test compounds (NTPs) were serially diluted in water, mixed with 0.2 µg of M CF- 7 lysate, and pre- incubated at room temperature for 15 minutes. Then the reaction was carried out for 30 minutes, amplified using PCR, and visualized colorimetrically per t he manufacturer’s instructions.
Cells were lysed in ice cold RIPA buffer containing 1x protease inhibitor tablet (Thermo), centrifuged for 10 minutes, and clarified lysates were quantified by BCA assay. […]

ORF2p core [3] = target: T1, ORF2p core; assay: Gel-based L1 RT assay, ORF2p core, inhibition by NRTI triphosphates; assay type: biochemical; details: 100 nM dNTP mixture
Method: as §1, §2
Gel-based RT activity assays consisted of pr e-incubating RTs with annealed DNA/RNA, DNA/DNA, or RNA/RNA 5’- end- radiolabeled or 5’-end-Cy5- o r FAM-labeled template:primer duplex or hybrid duplex and, where indicated, inhibitor in the presence of 0.1- 1 μ M dNTP or NTP mixture, 0.25 mM EDTA, 50 mM NaCl, and 25 mM Tris (pH 8) for 10 min at 37°C. Labeled nucleic acids were purchased from Dharmacon or IDT. Unless otherwise indicated, 15 μL reactions were initiated by the addition of 1.3 mM MgCl2, incubated for 10 min at 37 °C, and then stopped by the addition of 15 μL of formamide/EDTA (25 mM) mixture and incubated at 95 °C for 10 min. 3 μL reaction samples were subjected to denaturing 8 M urea 20% PAGE to resolve products followed by signal quantification (ImageQuant 5.2, GE Healthcare Bio- Sciences) through phosphorimaging (Amersham Typhoon 5, Cytivia). Scanned gel images are […]
minor products; original images are provided in an Extended Data file. […]

[4] = system: L1 retrotransposition reporter in HeLa cells; assay: LINE-1 dual luciferase retrotransposition assay in HeLa cells; assay type: cell-based, human; details: Homo sapiens; HeLa cells, stable dual luciferase L1 reporter, normalized to cell viability; n = 3 wells; read-out: IC50

IC50 (ORF2p core [1]): < 10 nM
IC50 index, fold = IC50 (drug, µM) ÷ [dNTP] (natural counterpart, 0.1 µM) (ORF2p core [3]): 4.1 fold
IC50 (ORF2p core [3]; NTP forms of NRTIs, one minute at 37 °C): 400 to 600 nM
Compound: Cc1cn([C@H]2C=C[C@@H](CO)O2)c(=O)[nH]c1=O [d4T, stavudine]
baseline and decitabine-induced IFN production [2]: reduced
IC50 [4]: 3100 nM

— article PMC10830420, “Structures, functions and adaptations of the human LINE-1 ORF2 protein” (Nature, 2023)
